Assay results taken from patent publication US9012439B2, “Use of electrophilic compounds for inducing platelet production or maintaining platelet function” (University of Rochester, priority 2007, dated 2015).

Columns and labels:
[1] = test system: primary human megakaryocytes; assay: Platelet production from human cord blood CD34+-derived megakaryocytes; format: cell-based; details: 10 μM, 24 h
Procedure: Human CD34+ cord blood cells were obtained from the National Disease Research Interchange (NDRI, Philadelphia, Pa.). Cells were plated at 2.5×10^5 cells per well in a 12-well plate and cultured in serum-free medium as previously described (Zeuner et al., “Chemotherapy-induced Thrombocytopenia Derives from the Selective Death of Megakaryocyte Progenitors and Can Be Rescued by Stem Cell Factor,” Cancer Res 67:4767-4773 (2007), which is hereby incorporated by reference in its entirety) and supplemented with 100 ng/mL of rhTPO. After 14 days in culture, megakaryocytes were identified by staining with a CD61-FITC antibody and analyzed on a BD Biosciences FACSCalibur flow cytometer. Data were analyzed using FlowJo software (Treestar, Ashland, Oreg.). Cell images were captured using an inverted microscope (Olympus IX81). Platelets were isolated from megakaryocytes by centrifugation at 150 xg for 10 min. Supernatants underwent sequential centrifugation (500 xg for 10 min and 1000×g for 10 min). The remaining platelet pellet was fixed then permeabilized with a CD61 or CD41 antibody. 7-AAD (BD Pharmingen) was added for 10 min before analyzing the cells by flow cytometry. Platelets were identified using three well-described parameters (Patel et al., “The Biogenesis of Platelets from Megakaryocyte Proplatelets,” J Clin Invest 115:3348-3354 (2005); Breton-Gorius et al., “Expression of Platelet Proteins During the In Vitro and In Vivo Differentiation of Megakaryocytes and Morphological Aspects of Their Maturation,” Semin Hematol 23:43-67 (1986); Ogura et al., “Establishment of a Novel Human Megakaryoblastic Leukemia Cell Line, MEG-01, With Positive Philadelphia Chromosome,” Blood 66:1384-1392 (1985) and Franks et al., “A Fluorescence Microscopy Method for Quantifying Levels of Prostaglandin Endoperoxide H Synthase-1 and CD-41 in MEG-01 Cells,” Biol Proced Online 3:54-63 (2001), each of which is hereby incorporated by reference in its entirety), size (using normal human platelets as a control), presence of CD61 or CD41 and lack of DNA as determined by the absence of 7-AAD staining Ten thousand platelet events were collected and platelets were quantified by rate (platelet events/second) (Chung et al., “Platelet Activation in Acute, Decompensated Congestive Heart Failure,” Thromb Res 120:709-713 (2007), which is hereby incorporated by reference in its entirety.

[2] = test system: human culture-derived platelets; assay: Function of human culture-derived platelets (collagen response, spreading on fibrinogen); format: cell-based
Procedure: Platelets were isolated from the Meg-01 cells and human blood as described above. Both normal human platelets and Meg-01-derived platelets were stained with annexin V-FITC then treated with 10 μg/ml of collagen for 15 min. Cells were analyzed for collagen-induced annexin V binding and change in size and shape by flow cytometry. Platelets were isolated from primary human megakaryocytes and primary mouse megakaryocytes as described above. Primary human platelets were stained with CD41-FITC and primary mouse platelets were stained with CD61-PE then treated with 10 μg/mL of collagen. Cells were analyzed for collagen-induced CD61/CD41 upregulation and change in size and shape using flow cytometry.
Coverslips were coated with 100 μg/mL of fibrinogen for 1 h and blocked with 0.5 mg/mL BSA for 1 h. Platelets were added to the fibrinogen-coated coverslips in Tyrode's buffer and fixed with glutaraldehyde, post-fixed with 1% osmium tetroxide, and dehydrated. Platelets were then coated with a gold/palladium film. Images were acquired using the Zeiss-Leo 982 FE-SEM (scanning electron microscope).

CCCCCC=CC=C1C(=O)C=C[C@@H]1CC=CCCCC(=O)O [15d-PGJ2, 15-deoxy-Δ^12,14 prostaglandin J2]
number of platelets generated from human megakaryocytes ([1]; CD61+ cells from cord blood CD34+ cells): doubled
proplatelet formation ([1]; human megakaryocytes, microscopy): induced proplatelet formation
platelet spreading on fibrinogen ([2]; human culture-derived platelets, fibrinogen coated slide): spread in response to fibrinogen
geometric mean fluorescence intensity of surface CD61, after collagen treatment ([2]; platelets from CD61+ cell cultures treated with 15d-PGJ2, collagen 10 μg/mL, 15 min): 20
geometric mean fluorescence intensity of surface CD61, before collagen ([2]; platelets from CD61+ cell cultures treated with 15d-PGJ2, no collagen): 5
